# Patent US20250188123A1, “PROTEASE INHIBITORS” (Regents of the University of Minnesota, priority 2022, published 2025)
# *1 amine or outer side, *2 acyl side, *3 side chain or, on linkers, in order; H or OH if unused. Where a SMILES comes first, the peptide text is derived from it. [ ]: non-standard residue; d: D form. ξ: configuration not given here. ξTHIQ1CO(6-Me) = Cc1ccc2c(c1)CCNC2C(=O)O; X3 = O=C([C@@H]1Cc2ccccc2N1[*:1])[*:2]; Aad = N[C@@H](CCCC(=O)O)C(=O)O; Tle = CC(C)(C)[C@H](N)C(=O)O
# Key:
# [1] = target: T1, human caspase-3 (Homo sapiens, UniProt P42574); assay: Fluorescent enzyme assay, Casp3 (AFC substrate AcDEVD-AFC); type: biochemical
# T1 construct: made in house; host or cells: E. coli Rosetta 2 pLysS DE3
# T1 sequence (P42574 29-277): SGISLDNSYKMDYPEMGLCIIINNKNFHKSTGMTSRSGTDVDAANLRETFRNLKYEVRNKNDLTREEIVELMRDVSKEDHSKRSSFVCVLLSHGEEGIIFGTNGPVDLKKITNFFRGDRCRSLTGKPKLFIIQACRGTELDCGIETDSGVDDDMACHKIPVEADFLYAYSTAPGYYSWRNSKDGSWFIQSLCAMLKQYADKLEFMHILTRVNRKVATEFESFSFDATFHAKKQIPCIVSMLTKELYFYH
# Source text: (§1) Human recombinant Casp1, 6, 7, and 9 were purchased from BioVision (Milpitas/CA, USA). AFC fluorogenic substrates and control peptides (AcYVAD-CHO, AcVDVAD-CHO, AcDEVD-CHO, AcVEID-CHO, and AcLEHD-CHO) were purchased from Bachem (Torrance/CA, USA). The pET23b vector encoding human caspase-3 was a gift of Dr. Michelle Arkin at University of California, San Francisco. Expression and purification of Casp3 was guided by previously described protocols (Denault J-B, Salvesen G S., Current Protocols in Protein Science, 2002, 30(1), 21.13. 1-21.13. 15). Briefly, the plasmid was transformed into E. coli Rosetta 2 pLyss DE3 cells that were cultured at 1 L scale in shake flasks. Five hours post induction with IPTG, cells were harvested through centrifugation (4000 g for 10 minutes at 4° C.), lysed by sonication, and centrifuged again for 30 minutes at 20000 g. Supernatant was resuspended in buffer (100 mM Tris pH 8.0, 500 mM NaCl). Purification was achieved by nickel-affinity chromatography followed by ion-exchange chromatography. Protein was diluted to 0.5 mg/mL and stored at −80° C. in 100 mM Tris, pH 8.0 supplemented with 10% glycerol. The typical yield for the expression, isolation, and purification was approximately 3 mg/L. The DNA encoding human caspase-2 (hCASP2, amino acids 170-452, free of the N-terminal caspase activation and recruitment domain) open reading frame (ORF) was amplified via polymerase chain reaction (PCR) from full-length hCASP2 cDNA (Origene, Rockville, MD; Cat #SC321316) using following primers: forward, 5′-[…]-3′; reverse, 5′-[…]-3′. The PCR fragment was then cloned into the pET23b vector (Millipore Sigma, Burlington, MA), and DNA sequence was verified by classic Sanger sequencing analyses. Site-directed mutageneses were carried out using a QuikChange II XL site-directed mutagenesis kit (Agilent Technologies, Santa Clara, CA; Cat #200522) according to the manufacturer's instruction. Expression of recombinant hCASP2 was induced using 150 μM isopropyl-β-D-thiogalactopyranoside (IPTG) (Promega, Madison, WI) in the BL21(DE3) E. coli strain (Millipore Sigma) at 16° C. for 14 hours while shaking at 250 rpm. Cells were then harvested via centrifugation at 6,000 g, 4° C. for 15 minutes, followed by lysis via sonication. Proteins were initially purified using HisPur Ni-NTA resin (Thermo Fisher Scientific, Waltham, MA) followed by metal chelating chromatography (5 mL HiTrap Chelating HP columns (GE Healthcare Life Sciences, Piscataway, NJ)). Further purification was carried out using anion exchange chromatography (5 mL HiTrap Q HP columns (GE Healthcare Life Sciences)) for hCASP2. Proteins were stored in 1× phosphate-buffered saline (pH 7.4) at 10 mg/mL (concentration determined using a BCA assay (Thermo Fisher Scientific)), −80° C. until further use.
# (§2) KM values were determined experimentally to be the following: Casp1: 5.9 μM; Casp2: 37.1 μM; Casp3: 7.6 μM; Casp6: 14.5 μM; Casp7: 13.8 μM; Casp9: 149.1 μM. Enzymes were diluted in buffer: 100 mM MES (pH 6.5) for Casp2 and or 100 mM HEPES (pH 7.0) for all other caspases, plus 150 mM NaCl, 0.1% CHAPS, 1.5% sucrose, 10 mM DTT. Enzyme concentrations were 0.05 U/well for Casp1, 6, and 7; 0.5 U/well for Casp9, 20 nM/well for Casp2, and 2 nM/well for Casp3. Enzyme in buffer (19 μL) was added per well in a black 384-well Corning 4514 assay plate. Test compounds were serially diluted in dimethyl sulfoxide (DMSO) and plated in duplicate into a Corning 3656 transfer plate. Test compound was added to assay plates in 0.5 μL aliquots per well and mixed 10 times using a BiomekFX (Beckman Coulter). Compound and enzyme mixture was incubated at 37° C. for 5 minutes for aldehyde warheads and 45 minutes for cyano warheads. […]
# [2] = target: T2, human caspase-2 (Homo sapiens, UniProt P42575); assay: Fluorescent enzyme assay, Casp2 (AFC substrate Z-VDVAD-AFC); type: biochemical; conditions: for Ki (Casp3) / Ki (Casp2): selectivity Casp2 over Casp3
# T2 construct: inferred from pET23b, XhoI reverse primer without stop codon, Ni-NTA purification) (C); made in house; host or cells: E. coli BL21(DE3)
# T2 sequence (P42575 170-452): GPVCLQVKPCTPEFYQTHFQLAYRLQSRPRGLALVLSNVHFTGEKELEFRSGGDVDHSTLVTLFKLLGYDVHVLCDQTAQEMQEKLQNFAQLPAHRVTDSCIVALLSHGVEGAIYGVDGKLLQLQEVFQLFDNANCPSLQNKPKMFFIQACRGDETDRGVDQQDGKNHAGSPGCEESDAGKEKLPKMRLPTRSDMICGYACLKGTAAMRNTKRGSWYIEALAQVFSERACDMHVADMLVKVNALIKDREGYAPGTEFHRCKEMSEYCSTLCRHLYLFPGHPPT
# Source text: as §1, §2
SMILES,Ki [1] [µM],Ki [2] [µM],Ki (Casp3) / Ki (Casp2) [2]
"Cc1ccc2c(c1)CCN(C(=O)[C@@H](NC(=O)[C@H](CCCC(=O)O)NC(=O)[C@@H]1Nc3ccc(F)cc3C1(C)C)C(C)C)[C@@H]2C(=O)N[C@H](C=O)CC(=O)O [Compound 12, (S)-6-(((S)-1-((S)-1-(((S)-1-carboxy-3-oxopropan-2-yl)carbamoyl)-6-methyl-3,4-dihydroisoquinolin-2(1H)-yl)-3-methyl-1-oxobutan-2-yl)amino)-5-((R)-5-fluoro-3,3-dimethylindoline-2-carboxamido)-6-oxohexanoic acid hydrotrifluoroacetate]",> 100,4.17,24
"Cc1ccc2c(c1)CCN(C(=O)[C@@H](NC(=O)[C@H](CCCC(=O)O)NC(=O)[C@@H]1Cc3ccccc3N1)C(C)(C)C)C2C(=O)N[C@H](C=O)CC(=O)O (stereo partly drawn) [Compound 11, (S)-6-(((S)-1-((S)-1-(((S)-1-carboxy-3-oxopropan-2-yl)carbamoyl)-6-methyl-3,4-dihydroisoquinolin-2(1H)-yl)-3,3-dimethyl-1-oxobutan-2-yl)amino)-5-((S)-indoline-2-carboxamido)-6-oxohexanoic acid hydrotrifluoroacetate] (H-[X3][Aad][Tle][ξTHIQ1CO(6-Me)]D-aldehyde)",> 100,4.17,24
"Cc1ccc2c(c1F)CCN(C(=O)[C@@H](NC(=O)[C@H](CCCC(=O)O)NC(=O)[C@@H]1Cc3ccccc3N1)C(C)C)C2C(=O)N[C@H](C=O)CC(=O)O (stereo partly drawn) [Compound 14, (S)-6-(((S)-1-((S)-1-(((S)-1-carboxy-3-oxopropan-2-yl)carbamoyl)-5-fluoro-6-methyl-3,4-dihydroisoquinolin-2(1H)-yl)-3-methyl-1-oxobutan-2-yl)amino)-5-((S)-indoline-2-carboxamido)-6-oxohexanoic acid hydrotrifluoroacetate]",> 100,0.191,525
